From the supplement of paper PMC10307832

What was measured:
Assay in all cases: relative viability (nuclei count vs DMSO), 5 days (fraction); higher = more cells survive
NCI-H838 = test system: NCI-H838
In short: (§1)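 Each reported value is a median over duplicate plates. It expresses relative viability: treated-well nuclei count divided by vehicle-well nuclei count. Lung cancer cell lines in 1536-well plates were dosed by pin tool a day after seeding, alone with one drug or with a fixed anchor-drug dose plus five library-drug doses (not always all listed) in √10 steps, and nuclei were counted after 5 days.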

NCI-H650 = test system: NCI-H650
In short: as §1

HCC-44 = test system: HCC-44
In short: as §1

NCI-H358 = test system: NCI-H358
In short: as §1

LC-2-ad = test system: LC-2-ad
In short: as §1

NCI-H1355 = test system: NCI-H1355
In short: as §1

NCI-H1915 = test system: NCI-H1915
In short: as §1

HCC-15 = test system: HCC-15
In short: as §1

NCI-H2347 = test system: NCI-H2347
In short: as §1

ABC-1 = test system: ABC-1
In short: as §1

LU99A = test system: LU99A
In short: as §1

UMC-11 = test system: UMC-11
In short: as §1

NCI-H2023 = test system: NCI-H2023
In short: as §1

HOP-62 = test system: HOP-62
In short: as §1

NCI-H2085 = test system: NCI-H2085
In short: as §1

PC-14 = test system: PC-14
In short: as §1

NCI-H1651 = test system: NCI-H1651
In short: as §1

COR-L23 = test system: COR-L23
In short: as §1

NCI-H1993 = test system: NCI-H1993
In short: as §1

SW 1573 = test system: SW 1573
In short: as §1

NCI-H2126 = test system: NCI-H2126
In short: as §1

HARA = test system: HARA
In short: as §1

EPLC-272H = test system: EPLC-272H
In short: as §1

`COc1nc(C)cnc1NS(=O)(=O)c1cccnc1-c1ccc(-c2nnco2)cc1` [Zibotentan] + CS(=O)(=O)CCNCc1ccc(-c2ccc3ncnc(Nc4ccc(OCc5cccc(F)c5)c(Cl)c4)c3c2)o1 [Lapatinib] (partner 2 µM) gave a relative viability (NCI-H838; first compound 0.08 µM) of 0.938, a relative viability (NCI-H838; first compound 0.253 µM) of 0.838 and a relative viability (NCI-H838; first compound 0.8 µM) of 0.922. The relative viability (NCI-H838; first compound 2.53 µM) was 1.06, the relative viability (NCI-H650; first compound 0.08 µM) was 0.974 and the relative viability (NCI-H650; first compound 0.253 µM) was 0.655. The relative viability (NCI-H650; first compound 0.8 µM) was 1, the relative viability (NCI-H650; first compound 2.53 µM) was 0.904 and the relative viability (HCC-44; first compound 0.08 µM) was 1.02. It also gave a relative viability (HCC-44; first compound 0.253 µM) of 1.01, a relative viability (HCC-44; first compound 0.8 µM) of 1.08 and a relative viability (HCC-44; first compound 2.53 µM) of 1.04. For the same compound, the relative viability (NCI-H358; first compound 0.08 µM) was 0.453, the relative viability (NCI-H358; first compound 0.8 µM) was 0.469 and the relative viability (NCI-H358; first compound 2.53 µM) was 0.503. The relative viability (LC-2-ad; first compound 0.08 µM) was 0.962, the relative viability (LC-2-ad; first compound 0.253 µM) was 0.944 and the relative viability (LC-2-ad; first compound 0.8 µM) was 1.06. The relative viability (LC-2-ad; first compound 2.53 µM) was 1.01, the relative viability (NCI-H1355; first compound 0.08 µM) was 1.01 and the relative viability (NCI-H1355; first compound 0.253 µM) was 1.03. For the same compound, the relative viability (NCI-H1355; first compound 0.8 µM) was 0.946, the relative viability (NCI-H1355; first compound 2.53 µM) was 0.977 and the relative viability (NCI-H1915; first compound 0.08 µM) was 1.03. The relative viability (NCI-H1915; first compound 0.253 µM) was 0.934, the relative viability (NCI-H1915; first compound 0.8 µM) was 0.963 and the relative viability (NCI-H1915; first compound 2.53 µM) was 1.03. It also gave a relative viability (HCC-15; first compound 0.08 µM) of 0.954, a relative viability (HCC-15; first compound 0.253 µM) of 0.858 and a relative viability (HCC-15; first compound 0.8 µM) of 0.951. For the same compound, the relative viability (HCC-15; first compound 2.53 µM) was 0.828, the relative viability (NCI-H2347; first compound 0.08 µM) was 1.05 and the relative viability (NCI-H2347; first compound 0.253 µM) was 0.941. It also gave a relative viability (NCI-H2347; first compound 0.8 µM) of 1.19, a relative viability (NCI-H2347; first compound 2.53 µM) of 0.943 and a relative viability (ABC-1; first compound 0.08 µM) of 1.28. The relative viability (ABC-1; first compound 0.253 µM) was 0.885, the relative viability (ABC-1; first compound 0.8 µM) was 0.971 and the relative viability (ABC-1; first compound 2.53 µM) was 1.28. For the same compound, the relative viability (LU99A; first compound 0.08 µM) was 1.02, the relative viability (LU99A; first compound 0.253 µM) was 1.01 and the relative viability (LU99A; first compound 0.8 µM) was 1.05. For the same compound, the relative viability (LU99A; first compound 2.53 µM) was 0.949, the relative viability (UMC-11; first compound 0.08 µM) was 0.919 and the relative viability (UMC-11; first compound 0.253 µM) was 0.86. For the same compound, the relative viability (UMC-11; first compound 0.8 µM) was 0.967, the relative viability (UMC-11; first compound 2.53 µM) was 1.06 and the relative viability (NCI-H2023; first compound 0.08 µM) was 0.87. It also gave a relative viability (NCI-H2023; first compound 0.253 µM) of 0.4, a relative viability (NCI-H2023; first compound 0.8 µM) of 0.651 and a relative viability (NCI-H2023; first compound 2.53 µM) of 0.846. The relative viability (HOP-62; first compound 0.08 µM) was 0.957, the relative viability (HOP-62; first compound 0.253 µM) was 1.12 and the relative viability (HOP-62; first compound 0.8 µM) was 1.22. It also gave a relative viability (HOP-62; first compound 2.53 µM) of 1.25, a relative viability (NCI-H2085; first compound 0.08 µM) of 0.796 and a relative viability (NCI-H2085; first compound 0.253 µM) of 0.837. It also gave a relative viability (NCI-H2085; first compound 0.8 µM) of 0.764, a relative viability (NCI-H2085; first compound 2.53 µM) of 0.95 and a relative viability (PC-14; first compound 0.08 µM) of 0.322. The relative viability (PC-14; first compound 0.253 µM) was 0.314, the relative viability (PC-14; first compound 0.8 µM) was 0.344 and the relative viability (PC-14; first compound 2.53 µM) was 0.348. The relative viability (NCI-H1651; first compound 0.08 µM) was 0.935, the relative viability (NCI-H1651; first compound 0.253 µM) was 0.366 and the relative viability (NCI-H1651; first compound 0.8 µM) was 0.747. The relative viability (NCI-H1651; first compound 2.53 µM) was 0.854, the relative viability (COR-L23; first compound 0.08 µM) was 1.21 and the relative viability (COR-L23; first compound 0.253 µM) was 0.849. The relative viability (COR-L23; first compound 0.8 µM) was 0.922, the relative viability (COR-L23; first compound 2.53 µM) was 0.798 and the relative viability (NCI-H1993; first compound 0.253 µM) was 0.792. It also gave a relative viability (NCI-H1993; first compound 0.8 µM) of 0.88, a relative viability (NCI-H1993; first compound 2.53 µM) of 0.768 and a relative viability (SW 1573; first compound 0.08 µM) of 1.18. For the same compound, the relative viability (SW 1573; first compound 0.253 µM) was 1.11, the relative viability (SW 1573; first compound 0.8 µM) was 1.2 and the relative viability (SW 1573; first compound 2.53 µM) was 1.14. It also gave a relative viability (NCI-H2126; first compound 0.08 µM) of 0.79, a relative viability (NCI-H2126; first compound 0.253 µM) of 0.724 and a relative viability (NCI-H2126; first compound 0.8 µM) of 0.662. For the same compound, the relative viability (NCI-H2126; first compound 2.53 µM) was 0.779, the relative viability (HARA; first compound 0.08 µM) was 0.734 and the relative viability (HARA; first compound 0.253 µM) was 0.813. It also gave a relative viability (HARA; first compound 0.8 µM) of 0.742, a relative viability (HARA; first compound 2.53 µM) of 0.837 and a relative viability (EPLC-272H; first compound 0.08 µM) of 0.982. For the same compound, the relative viability (EPLC-272H; first compound 0.253 µM) was 0.894, the relative viability (EPLC-272H; first compound 0.8 µM) was 0.919 and the relative viability (EPLC-272H; first compound 2.53 µM) was 0.869.
